Reference: patent US20230158057A1, “COMPOSITIONS AND METHODS FOR THE TREATMENT OF PAIN” (Duke University, priority 2020, published 2023)
“Also recorded” adds a separate entry of the source.

Experiments:
naïve mice = experiment: Von Frey testing of mechanical thresholds in naïve mice (WT and knockout); format: in vivo, mouse; conditions: naïve mice; for dose exhibiting the largest increase in paw withdrawal thresholds: i.t.; for mechanical sensory thresholds (von Frey): i.t. injection
Method: Reflexive-based sensory testing in mice: All behavioral testing in mice was performed in a specialized humidity- and light-controlled mouse behavior facility maintained at 21-24° C., with testing conducted between the hours of 8:00-16:00. Mice were habituated to the testing environment for at least 2 days prior to baseline testing. All tests were performed by an experimenter who was blinded to experimental conditions, including genotypes and drug treatment. For multi-day experiments using STING agonists, mice were tested in the same room at approximately the same time each day. To measure mechanical sensitivity, mice were confined to individual chambers with non-transparent borders on an elevated mesh rack, preventing mice from visualizing or interacting with one another during the testing period. Mouse hindpaws were stimulated with a series of von Frey filaments with logarithmically increasing stiffness (0.02-2.56 g, Stoelting), which was applied perpendicularly to the central plantar surface. We determined the 50% paw withdrawal threshold using the up-down method. […] To test cold sensitivity, mice were again placed on an elevated metal mesh floor in isolated chambers, and a ˜20 μl acetone drop was applied to the central plantar surface of the mouse hindpaw using a pipette.
For the experiments utilizing i.t. 2′3′-cGAMP and 3′3′-cGAMP complexed with Lipofectamine 2000 (ThermoFisher, 11668), 10 μg 2′3′-cGAMP or 3′3′-cGAMP was incubated at room temperature for 30 minutes in sterile PBS with 3 μl Lipofectamine 2000. In this case, the vehicle control was 3 μl Lipofectamine 2000 in PBS, as in a previous study which used this approach. […] For experiments utilizing rabbit anti-IFN-α or -β neutralizing antibodies, a polyclonal rabbit IgG antibody served as the control. Antibodies were utilized in vivo at 300 ng/mouse or in vitro at 300 ng/ml. Paclitaxel was administered via repeated i.p. injections every other day for 4 days at a dose of 2 mg/kg. For the whole mount DRG recordings, young mice (4-6 weeks) were administered a single 6 mg/kg dose one week prior to the experiment. All intrathecal injections were performed under brief anesthesia with 2-2.5% isoflurane. Drugs administered by intrathecal injection were preceded by shaving a small area on the back corresponding to the injection site, followed by spinal puncture using a 30-gauge needle between the L5-L6 levels to deliver a maximum of 5-10 μl into the cerebrospinal fluid. Successful intrathecal injection was always confirmed by a brisk tail-flick upon delivery. For the experiments involving intraplantar (i.pl.) injection, IFN-α was dissolved in sterile saline and administered at the concentrations indicated in the figures in a total volume of 20 μl, administered under 2-2.5% isoflurane anesthesia to minimize animal stress. For these experiments, vehicle (saline) or IFN-α were slowly and carefully expressed into the left dorsal hindpaw of anesthetized mice and allowed to perfuse the tissue for ˜20 seconds prior to removal of the needle. […] Mechanical sensory testing was done anteriorly and care was taken to avoid Von Frey filament stimulation of the injection site.

tumor-bearing femora = experiment: In vivo X-ray radiography of bone destruction, LLC model; set-up: species or system mouse; conditions: for bone destruction score: LLC model, twice i.p.
Excerpt: In vivo X-ray radiography. Osteolytic bone destruction was continuously evaluated by radiography using the MultiFocus by Faxitron system (Faxitron Bioptics LLC, Tucson, Ariz.). Radiographs of tumor-bearing femora were rated for bone destruction on a 0-5 score scale based on previous study: 0 for normal bone at baseline without tumor inoculation; 1 for one to three radiolucent lesions indicative of bone destruction compared to baseline; 2 for increased number of lesions (three to six lesions) and loss of medullary bone; 3 for loss of medullary bone and erosion of cortical bone; 4 for full-thickness unicortical bone loss; 5 for full-thickness bicortical bone loss and displaced skeletal fracture. All radiographic image quantifications were completed by an experimenter who was blinded to the experimental conditions.

[1] = system: bone marrow-derived macrophages (BMDM); experiment: In vitro osteoclastogenesis from bone marrow-derived macrophages (BMDM), TRAP staining; format: cell-based, mouse; conditions: 30 μM, WT vs STING^gt/gt or Ifnar1^−/−
Method: (§1) In vitro induction of osteoclastogenesis and TRAP staining. For in vitro drug treatment, the RAW 264.7 cells were incubated with 35 ng/ml RANKL for six days. Isolated bone marrow cells were cultured overnight in α-MEM media containing 10% fetal bovine serum and 1% antibiotic-antimycotic solution. The suspended cells were collected and incubated with 20 ng/ml MCSF for 3 days to obtain bone marrow-derived macrophage (BMDM). The attached cells were further activated by 35 ng/ml RANKL and 20 ng/ml MCSF. Drug treatment was performed in tandem with RANKL. Culture medium and co-cultured reagents were changed every 3 days. After 6 or 7 days of incubation, the cells were fixed by 4% PFA and stained with warm TRAP staining solution (TRAP kit, Sigma-Aldrich, SLBW4002) for 10-30 min at 37° C.

IFN-α = IFN-α ELISA in serum and bone marrow lysate after i.p. STING agonist, LLC model; format: in vivo, mouse; conditions: for increase of serum levels of IFN-α: 4 h after a single i.p. injection 20 mg/kg on d3, vs vehicle; for IFN-α in bone marrow (BM) lysate: 4 h after i.p., d3
Method: (§2) ELISA. Mouse high-sensitivity IFN-α ELISA kit (42115-1) and IFN-β ELISA kit (42410-1) were purchased from PBL Assay Science. Mouse CTX-I ELISA kit (AC-06F1) and mouse PINP ELISA kit (AC-33F1) were purchased from Immunodiagnostic Systems. ELISA was performed using culture medium, serum, and bone marrow lysates. Serum was obtained from whole blood that was collected from a submandibular vein via facial vein puncture, coagulated for 30 minutes at room temperature, followed by centrifugation (2,000 ×g for 10 min, 4° C.) and collection of the supernatant (serum). Bone marrow was homogenized in a lysis buffer containing protease inhibitors at 4° C. for 30 minutes. ELISA was conducted in accordance with the manufacturer's instructions. A standard curve was performed for each experiment.

IFN-β = IFN-β ELISA on BMDM culture medium; format: cell-based, mouse; conditions: 24 h after incubation; IFN-β induction much greater
Method: as §2
as §1, with “After 6 or 7 days of incubation, the cells were fixed by 4% PFA and stained with warm TRAP staining solution (TRAP kit, Sigma-Aldrich, SLBW4002) for 10-30 min at 37° C.” left out

## Nc1ncnc2c1ncn2[C@@H]1O[C@@H]2COP(=O)([S-])O[C@@H]3[C@H](O)[C@@H](COP([O-])(=S)O[C@H]2[C@H]1O)O[C@H]3n1cnc2c(N)ncnc21.[Na+].[Na+] (stereo partly drawn) [ADU-S100, (2′-5′)-[P(R)]-5′-O-[(R)-hydroxymercaptophosphinyl]-P-thioadenylyl-adenosine cyclic dinucleotide]
naïve mice
  dose exhibiting the largest increase in paw withdrawal thresholds: 25 µg
  mechanical sensory thresholds (von Frey): induced dose-dependent antinociception
tumor-bearing femora
  bone destruction score: reduced the bone destruction score at d11 and d15
[1]
  osteoclast formation from BMDM: could significantly inhibit osteoclast formation from BMDM from WT mice but not from STING^gt/gt or Ifnar1^−/− mice
IFN-α
  increase of serum levels of IFN-α: approximately 1000 fold
  IFN-α in bone marrow (BM) lysate: sharply increased
IFN-β
  IFN-β levels in the culture medium: drastic increase in IFN-α and IFN-β levels

## Cc1ccc2c(=O)c3cccc(CC(=O)O)c3oc2c1C [DMXAA, 2-(5,6-dimethyl-9-oxo-9H-xanthen-4-yl)acetic acid]
naïve mice
  dose exhibiting the largest increase in paw withdrawal thresholds: 10 µg
  mechanical sensory thresholds (von Frey): induced dose-dependent antinociception; also recorded: dose-dependent increase in paw withdrawal thresholds
tumor-bearing femora; 20 mg/kg i.p. d3 and d7
  bone destruction in Batf3^−/− mice: reduced bone destruction on d8 and d11 but not d15 in Batf3^−/− mice
  bone destruction score, WT and Rag1^−/−: improvement in the bone destruction score in both WT and Rag1^−/− mice at d11, but not at d15
  bone destruction score, WT vs STING^gt/gt: reduction in the bone destruction score in DMXAA-treated WT mice at d11 and d15 after tumor inoculation, and this effect was abolished in STING^gt/gt mice
tumor-bearing femora
  bone destruction score: decreased the bone destruction score on d8, d11 and d15
tumor-bearing femora; d11 and d15
  bone destruction score, WT vs Ifnar1^−/−: significantly reduced the bone destruction score without changing overall body weight in WT mice, but this effect was abolished in Ifnar1^−/− mice
[1]
  osteoclast formation from BMDM: could significantly inhibit osteoclast formation from BMDM from WT mice but not from STING^gt/gt or Ifnar1^−/− mice
IFN-α
  increase of serum levels of IFN-α: approximately 1000 fold
  IFN-α in bone marrow (BM) lysate: sharply increased
IFN-β
  IFN-β levels in the culture medium: drastic increase in IFN-α and IFN-β levels
